Results: US5049550A, “Diadenosine 5', 5'"-p^1, p^4,-tetraphosphate analogs as antithrombotic agents” (Worcester Foundation for Experimental Biology, priority 1988, dated 1991)
“Also recorded” adds a separate entry of the source.

Legend:
[1] = Assay of blood AP4 A and ATP before and after AP4 A infusion in rabbits (in vivo); design: species or system rabbit
Protocol: (§1) Male, New Zealand white rabbits, weighing 2-2.5 kg., were anesthetized with ketamine hydrochloride (100 mg/kg intramuscularly). AP4 A (Boehringer (100 Mannheim Biochemicals, Indianapolis, Ind.), or saline control was infused via a marginal ear vein. A segment of the left common carotid artery was isolated by vascular clamps. A 1 cm. length of polyethylene tubing (PE-90, Clay Adams, Parsippany, N.Y.) was inserted, secured by silk ligatures, and the blood flow re-established by removing the clamps. Blood was sampled from the right carotid artery for assays of AP4 A and ATP, and for platelet aggregation studies.
(§2) After preliminary trials, a standard AP4 A infusion protocol was established as follows: A dose of AP4 A at 50 mg/kg was reconstituted in 10 ml of normal saline and infused by pump at a uniform rate over two hours. Control rabbits received 10 ml of saline alone. The intracarotid cannula was inserted, and the re-establishment of blood flow timed at 15 minutes into the infusion. Upon the completion of infusion at 2 hours, the intracarotid tubing was removed, and its contents flushed out into a petri dish. The presence of a clot or of liquid blood contents was noted.
(§3) Blood samples were collected from the carotid artery through a catheter before and after (0, 10, 20, 40, and 60 minutes) infusion of AP4 A. Blood was anticoagulated by mixing with 0.15 volume of acid-citrate-dextrose solution. An aliquot of blood collected at the end of AP4 A infusion (to sample) was incubated at 37° C. and sampled at 10, 20, 40, and 60 minutes to evaluate the in vitro decay of AP4 A. Blood samples of […] 3% perchloric acid and kept at 0° C. for 30 minutes with intermittent vortexing. The acid soluble fraction was recovered by centrifugation at 1000 g for 10 minutes and neutralized by 5M K2 CO3. It was then kept at -80° C. until assay of the nucleotides. The AP4 A assay was performed by coupling the phosphodiesterase and luciferase reactions in a luminometer (Model 6100 Picolite, Packard, Downers Grove, Ill.). The detailed method of AP4 A and ATP assays has been reported elsewhere (Kim, B. K., Chao, F. C., Leavitt, R., Fauci, A. S., Meyers, K. M. and Zamecnik, P. C. Blood, 66:735-737, 1985).
(§4) The disappearance of infused AP4 A in the circulation and in incubated blood was studied in 2 rabbits. Mean values of hemoglobin, hematocrit and platelet count were 10.1 g/dl, 30.8% and 362,000/ul respectively. The blood content of AP4 A in the rabbits was 51 nmol/1 blood prior to infusion. […] Kim, B. K. et al., Blood, 66:735-737 (1985); Flodgaard, H., Zamecnik, P. C. Meyers, K. and Klenow, H., Thrombosis Research, 37:345-351 (1986). […] A very rapid disappearance of infused AP4 A was observed, with complete clearance within 10 minutes after infusion. When blood samples obtained at the end of AP4 A infusion were incubated at 37° C., only 15-fold and 4-fold levels of AP4 A, as compared to baseline could be detected after 10 minutes and 20 minutes respectively.

[2] = Decay of AP4 A / ATP in incubated rabbit blood collected at the end of AP4 A infusion (ex vivo); assay type: in vitro ADME; conditions: for level of AP4 A as compared to baseline: 37° C.
Protocol: as §3, §4

[3] = test system: aggregation of platelets induced by ADP; assay: ADP-induced aggregation of platelets recovered from AP4 A-infused rabbits; assay type: in vivo, rabbit
Protocol: as §2
(§5) Rabbit carotid arterial blood was collected in 3.8% sodium citrate (9 volumes blood to 1 volume citrate). Platelet rich plasma (PRP) and platelet poor plasma (PPP) were prepared by centrifugation at 150 g and 1,000 g for 10 minutes respectively. Aggregation studies were performed in a Chrono-Log (Havertown, Pa.) aggregometer with ADP or collagen as aggregating agents. ADP (Sigma Chemical Co.) was used in a final concentration of 2×10^-5 M. Calf skin collagen (Sigma Chemical Co.) was used in a final concentration of 200 ug/ml.

[4] = test system: collagen-induced aggregation of platelets; assay: Collagen-induced aggregation of platelets recovered from AP4 A-infused rabbits; assay type: in vivo, rabbit; conditions: 50 mg per kg over 2 hours; collagen 200 ug/ml (FIG. 4)
Protocol: as §2, §5

[5] = test system: Intracarotid Artery Thrombosis; assay: Intracarotid cannula arterial thrombosis model in rabbits; assay type: in vivo, rabbit
Protocol: Gurewich, V. and Lipinski, B. Thrombosis Research, 9:101 (1976); Louie, S. and Gurewich, V. Thrombosis Research, 30:323-335 (1983).
as §1, §2
Twenty-five rabbits each were assigned to the experimental group that received AP4 A (50 mg/kg), and the control group that received normal saline alone. The incidence of clot formation in the intracarotid cannula in the two groups was compared by the Chi-Square test.
Initially, twelve rabbits received a constant infusion of E10 over a 2 hour period at a dosage of 100 mg in 10 ml. These intravenous infusions were performed as described above for AP4 A.
In addition, 30 mg of E10 in 3 ml saline was administered as a single injection over a one minute time span at the beginning of the cannulation period.

[6] = plasma; cited from earlier work
[7] = test system: ADP induced platelet aggregation; conditions: in vitro; even when aggregation has progressed to 60% completion; cited from earlier work
[8] = in vivo, before infusion of AP4 A
[9] = AP4 A 50 mg/kg infused over 2 hours, 25 rabbits

level of ATP after AP4 A infusion ([1]; an initial increment and a late increment): bimodal increments
increase of blood AP4 A at the end of infusion ([1]; end of infusion): 125 fold of baseline
concentration ([1]; end of infusion, 50 mg/kg): 6400 nM
half-life in rabbit blood ([1]; in vivo and ex vivo): short half-life
ATP, umol/l blood ([1]; in vivo, 0 min after infusion of AP4 A (50 mg/kg over 2 h)): 579.0 umol/l blood
ATP, umol/l blood ([1]; in vivo, 10 min after infusion of AP4 A (50 mg/kg over 2 h)): 573.5 umol/l blood
ATP, umol/l blood ([1]; in vivo, 20 min after infusion of AP4 A (50 mg/kg over 2 h)): 564.0 umol/l blood
ATP, umol/l blood ([1]; in vivo, 40 min after infusion of AP4 A (50 mg/kg over 2 h)): 562.0 umol/l blood
ATP, umol/l blood ([1]; in vivo, 60 min after infusion of AP4 A (50 mg/kg over 2 h)): 629.5 umol/l blood
AP4 A, umol/l blood [1, 8]: 0.051 umol/l blood
ATP, umol/l blood [1, 8]: 522.9 umol/l blood
concentration at 0 h ([1]; rabbit, blood, iv, in vivo, 0 min after infusion (50 mg/kg over 2 h), read-out: AP4 A, umol/l blood): 6.41 µmol/L
concentration at 10 min ([1]; rabbit, blood, iv, in vivo, 10 min after infusion (50 mg/kg over 2 h), read-out: AP4 A, umol/l blood): 0.043 µmol/L
concentration at 20 min ([1]; rabbit, blood, iv, in vivo, 20 min after infusion (50 mg/kg over 2 h), read-out: AP4 A, umol/l blood): 0.045 µmol/L
concentration at 40 min ([1]; rabbit, blood, iv, in vivo, 40 min after infusion (50 mg/kg over 2 h), read-out: AP4 A, umol/l blood): 0.05 µmol/L
concentration at 1 h ([1]; rabbit, blood, iv, in vivo, 60 min after infusion (50 mg/kg over 2 h), read-out: AP4 A, umol/l blood): 0.042 µmol/L
time to complete clearance after infusion ([1]; rabbits, after end of infusion): ≤ 10 min
blood content of AP4 A prior to infusion ([1]; rabbits, prior to infusion): 51 nmol/1 blood
blood content of AP4 A: fold lower than the level observed in man ([1]; rabbits, prior to infusion, versus man): 7.3 fold
level of AP4 A as compared to baseline ([2]; ex vivo, after 10 minutes): 15 fold
level of AP4 A as compared to baseline ([2]; ex vivo, after 20 minutes): 4 fold
ATP, umol/l blood ([2]; ex vivo, 10 min at 37° C.): 570.1 umol/l blood
ATP, umol/l blood ([2]; ex vivo, 20 min at 37° C.): 559.3 umol/l blood
ATP, umol/l blood ([2]; ex vivo, 40 min at 37° C.): 551.5 umol/l blood
ATP, umol/l blood ([2]; ex vivo, 60 min at 37° C.): 572.0 umol/l blood
concentration at 10 min ([2]; rabbit, blood, iv, 50 mg/kg, ex vivo, 10 min at 37° C., read-out: AP4 A, umol/l blood): 0.799 µmol/L
concentration at 20 min ([2]; rabbit, blood, iv, 50 mg/kg, ex vivo, 20 min at 37° C., read-out: AP4 A, umol/l blood): 0.21 µmol/L
concentration at 40 min ([2]; rabbit, blood, iv, 50 mg/kg, ex vivo, 40 min at 37° C., read-out: AP4 A, umol/l blood): 0.041 µmol/L
concentration at 1 h ([2]; rabbit, blood, iv, 50 mg/kg, ex vivo, 60 min at 37° C., read-out: AP4 A, umol/l blood): 0.037 µmol/L
SMILES: Nc1ncnc2c1ncn2[C@@H]1O[C@H](COP(=O)(O)OP(=O)(O)OP(=O)(O)OP(=O)(O)OC[C@H]2O[C@@H](n3cnc4c(N)ncnc43)[C@H](O)[C@@H]2O)[C@@H](O)[C@H]1O [AP4 A, diadenosine 5',5'"-p^1,p^4 -tetraphosphate]
ex vivo decay compared to in vivo clearance ([2]; rabbit blood): significantly longer; also recorded: slightly longer
aggregation of platelets induced by ADP after AP4 A infusion ([3]; 50 mg per kg over 2 hours, ADP 2×10^-5 M (FIG. 4)): diminished response to ADP-induced aggregation; also recorded: markedly blunted
inhibition of ADP-induced platelet aggregation on administration to a mammal ([3]; rabbit, in vivo): markedly inhibit ADP-induced platelet aggregation
effect on collagen-induced aggregation after AP4 A infusion [4]: little effect
% CLOTS (incidence of thrombosis) [5, 9]: 56%
Clot Absent (rabbits) [5, 9]: 11
Clot Present (rabbits) [5, 9]: 14
difference in dimension and weight of clots versus controls ([5]; AP4 A 50 mg/kg over 2 hours): no significant difference
degradation products [6]: degraded to AMP and ATP
effect on ADP induced platelet aggregation [7]: competitively inhibits ADP induced platelet aggregation, causing an immediate dispersion of aggregated platelets
